Data: patent US12440496B2, “Natriuretic peptide receptor a agonists useful for the treatment of cardiometabolic diseases, kidney disease and diabetes” (Merck Sharp & Dohme LLC, priority 2019, dated 2025)
pEC50: −log10 of the molar value.

The compounds below were run against T1, hNPRA (Homo sapiens, UniProt P16066) (assay: NPRA Functional Cell Assay (cGMP HTRF, NPRA HEK JumpIn stable cells)). Conditions: cGMP production, 1 hour at 37° C., 10-point dose response.
T1 construct: expressed in transfected cells
T1 sequence (P16066 33-1061): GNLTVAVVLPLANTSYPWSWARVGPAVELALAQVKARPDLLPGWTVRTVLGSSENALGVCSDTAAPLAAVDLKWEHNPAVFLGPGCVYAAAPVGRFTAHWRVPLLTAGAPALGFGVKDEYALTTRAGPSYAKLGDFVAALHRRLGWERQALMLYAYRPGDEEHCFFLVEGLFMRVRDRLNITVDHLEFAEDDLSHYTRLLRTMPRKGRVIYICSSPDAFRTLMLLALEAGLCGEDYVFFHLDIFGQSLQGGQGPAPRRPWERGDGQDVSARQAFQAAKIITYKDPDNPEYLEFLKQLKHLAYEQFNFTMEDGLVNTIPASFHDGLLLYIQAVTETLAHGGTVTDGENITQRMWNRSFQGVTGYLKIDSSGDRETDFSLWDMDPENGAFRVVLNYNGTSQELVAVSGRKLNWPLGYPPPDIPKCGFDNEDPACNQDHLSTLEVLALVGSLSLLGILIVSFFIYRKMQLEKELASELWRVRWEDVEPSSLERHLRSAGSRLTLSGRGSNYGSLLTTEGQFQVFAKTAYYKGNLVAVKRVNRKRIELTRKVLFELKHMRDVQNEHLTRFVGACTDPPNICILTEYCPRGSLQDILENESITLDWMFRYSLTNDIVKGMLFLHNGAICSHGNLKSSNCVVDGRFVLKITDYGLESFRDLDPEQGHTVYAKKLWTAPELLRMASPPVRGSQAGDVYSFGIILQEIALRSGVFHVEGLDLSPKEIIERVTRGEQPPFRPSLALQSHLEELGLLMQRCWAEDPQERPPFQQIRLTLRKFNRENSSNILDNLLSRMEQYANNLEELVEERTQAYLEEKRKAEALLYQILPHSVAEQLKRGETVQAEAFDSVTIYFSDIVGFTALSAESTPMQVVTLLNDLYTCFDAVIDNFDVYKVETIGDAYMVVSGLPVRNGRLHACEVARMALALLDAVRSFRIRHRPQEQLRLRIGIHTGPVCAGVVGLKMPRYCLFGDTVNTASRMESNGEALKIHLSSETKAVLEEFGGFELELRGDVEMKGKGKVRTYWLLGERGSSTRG
Format: cell-based
How it was run: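 cGMP HTRF read-out after 1 hour compound treatment at 37° C. of human NPRA-expressing HEK JumpIn cells, 1500 cells/well, in buffer with phosphodiesterase inhibitors IBMX and RO20 (100 uM each). Signal converted to [cGMP] by calibration curve; EC50s fitted by 4-parameter logistic; 50 nM h-ANP as positive response.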

Row | SMILES | pEC50
1 | CN1CC(NC(=O)c2cccc([C@@H](CCN3CCC[C@H]3CC(=O)O)NC(=O)c3nc4cc5c(nc4s3)CC[C@H](C(C)(C)C)C5)c2)C1 (racemic) [Example 106, 2-[rac-(2S)-1-[rac-(3R)-3-[3-[(1-methylazetidin-1-ium-3-yl)carbamoyl]phenyl]-3-[rac-(7S)-7-tert-butyl-5,6,7,8-tetrahydrothiazolo[5,4-b]quinoline-2-carbonyl]amino]propyl] pyrrolidin-2-yl]acetic acid; 2,2,2-trifluoroacetate] | 6.28
2 | CC(C)(C)[C@H]1CCc2nc3sc(C(=O)N[C@H](CCN4CCCCC4)c4cccc(NS(C)(=O)=O)c4)cc3cc2C1 (racemic) [Example 11, ammonium; methylsulfonyl-[3-[rac-(1R)-3-(1-piperidyl)-1-[rac-(6S)-6-tert-butyl-5,6,7,8-tetrahydrothieno[2,3-b]quinoline-2-carbonyl]amino]propyl]phenyl] azanide] | 6.14
3 | CC(C)(C)[C@H]1CCc2nc3sc(C(=O)N[C@H](CCN4C[C@@H](O)[C@@H](O)C4)c4ccc(-c5ccc(=O)[nH]c5)cc4)cc3cc2C1 (racemic) [Example 61, rac-(6S)-6-tert-butyl-N-[rac-(1R)-1-[4-(6-oxo-1H-pyridin-3-yl)phenyl]-3-[rac-(3S,4R)-3,4-dihydroxypyrrolidin-1-ium-1-yl]propyl]-5,6,7,8-tetrahydrothieno[2,3-b]quinoline-2-carboxamide;formate] | 5.98
4 | CC(C)[C@]1(F)CCc2nc3sc(C(=O)N[C@H](CCN4CCC(O)CC4)c4ccc(-c5ccnnc5)nc4)nc3cc2C1 [Example 265, (S)-7-fluoro-N-((R)-3-(4-hydroxypiperidin-1-yl)-1-(6-(pyridazin-4-yl)pyridin-3-yl)propyl)-7-isopropyl-5,6,7,8-tetrahydrothiazolo[5,4-b]quinoline-2-carboxamide] | 6.61
5 | Cn1cncc1-c1ccc([C@@H](CCN2CCC(O)CC2)NC(=O)c2nc3cc4c(nc3s2)CC[C@H](C(C)(C)C)C4)cc1 (racemic) [Example 179, rac-(7S)-7-tert-butyl-N-[rac-(1R)-3-(4-hydroxy-1-piperidyl)-1-[4-(3-methylimidazol-4-yl)phenyl]propyl]-5,6,7,8-tetrahydrothiazolo[5,4-b]quinoline-2-carboxamide] | 5.85
6 | CN1CCC(NC(=O)c2cccc([C@@H](CCN3CCC(O)CC3)NC(=O)c3nc4cc5c(nc4s3)CC[C@H](C(C)(C)C)C5)c2)CC1 (racemic) [Example 141, rac-(7S)-7-tert-butyl-N-[rac-(1R)-3-(4-hydroxy-1-piperidy1)-1-[3-[(1-methyl-4-piperidyl)carbamoyl]phenyl]propyl]-5,6,7,8-tetrahydrothiazolo[5,4-b]quinoline-2-carboxamide] | 6.59
7 | CC(C)(C)[C@H]1CCc2nc3sc(C(=O)N[C@H](CCN4CCC(C(=O)O)CC4)c4ccc(-c5ccc(=O)[nH]c5)cc4)cc3cc2C1 (racemic) [Example 44, 1-[rac-(3R)-3-[4-(6-oxo-1H-pyridin-3-yl)phenyl]-3-[rac-(6S)-6-tert-butyl-5,6,7,8-tetrahydrothieno[2,3-b]quinoline-2-carbonyl]amino]propyl] piperidin-1-ium-4-carboxylic acid;formate] | 6.18
8 | Cc1[nH]cnc1-c1ccc([C@@H](CCN2CCC(O)CC2)NC(=O)c2nc3cc4c(nc3s2)CC[C@H](C(C)(C)C)C4)cc1 (racemic) [Example 174, rac-(7S)-7-tert-butyl-N-[rac-(1R)-3-(4-hydroxy-1-piperidyl)-1-[4-(5-methyl-1H-imidazol-4-yl)phenyl]propyl]-5,6,7,8-tetrahydrothiazolo[5,4-b]quinoline-2-carboxamide] | 6.00
9 | CC(C)(C)[C@H]1CCc2nc3sc(C(=O)N[C@H](CCN4CCC(O)CC4)c4ccc(-c5cncs5)cc4)nc3cc2C1 (racemic) [Example 185, rac-(7S)-7-tert-butyl-N-[rac-(1R)-3-(4-hydroxypiperidin-1-ium-1-yl)-1-(4-thiazol-5-ylphenyl)propyl]-5,6,7,8-tetrahydrothiazolo[5,4-b]quinoline-2-carboxamide; 2,2,2-trifluoroacetate] | 5.72
10 | CC(C)(C)[C@H]1CCc2nc3sc(C(=O)N[C@H](CCN4CCC(O)CC4)c4cccc(NS(C)(=O)=O)c4)cc3cc2C1 (racemic) [Example 8, ammonium; methylsulfonyl-[3-[rac-(1R)-3-(4-hydroxy-1-piperidyl)-1-[rac-(6S)-6-tert-butyl-5,6,7,8-tetrahydrothieno[2,3-b]quinoline-2-carbonyl]amino]propyl]phenyl] azanide] | 6.34
11 | CC(C)(C)[C@H]1CCc2nc3sc(C(=O)N[C@H](CCN4CCC(O)CC4)c4ccc(-c5ccc(=O)[nH]c5)nc4)nc3cc2C1 (racemic) [Example 195, rac-(7S)-7-tert-butyl-N-[rac-(1R)-3-(4-hydroxy-1-piperidyl)-1-[6-(6-oxo-1H-pyridin-3-yl)-3-pyridyl]propyl]-5,6,7,8-tetrahydrothiazolo[5,4-b]quinoline-2-carboxamide] | 6.90
12 | CC(C)(C)[C@H]1CCc2nc3sc(C(=O)N[C@H](CCN4CCC(CO)C4)c4ccccc4)cc3cc2C1 (stereo partly drawn) [Example 259, (6S)-6-tert-butyl-N-{(1R)-3-[3-(hydroxymethyl)pyrrolidin-1-yl]-1-phenylpropyl}-5,6,7,8-tetrahydrothieno[2,3-b]quinoline-2-carboxamide] | 5.74
13 | CC(C)(C)[C@H]1CCc2nc3sc(C(=O)N[C@H](CCN4CCC(O)CC4)c4cccc(C(=O)N5CCC6NCCC65)c4)nc3cc2C1 (mixture of isomers) [Example 146, rac-(7S)-7-tert-butyl-N-[rac-(1R)-1-[3-(2,3,3a,5,6,6a-hexahydro-1H-pyrrolo[3,2-b]pyrrole-4-carbonyl)phenyl]-3-(4-hydroxy-1-piperidyl)propyl]-5,6,7,8-tetrahydrothiazolo[5,4-b]quinoline-2-carboxamide] | 6.22
14 | CC(C)(C)[C@H]1CCc2nc3sc(C(=O)N[C@H](CCN4CCC(O)CC4)c4ccc(-c5csc(C(=O)O)c5)cc4)nc3cc2C1 (racemic) [Example 126, 4-[4-[rac-(1R)-3-(4-hydroxy-1-piperidyl)-1-[[rac-(7S)-7-tert-butyl-5,6,7,8-tetrahydrothiazolo[5,4-b]quinoline-2-carbonyl]amino]propyl]phenylthiophene-2-carboxylic acid] | 6.43
15 | COC(=O)CC1CCN(CC[C@@H](NC(=O)c2nc3cc4c(nc3s2)CC[C@H](C(C)(C)C)C4)c2cccc(C(=O)NC3CN(C)C3)c2)CC1 (racemic) [Example 110, methyl 2-[1-[rac-(3R)-3-[3-{(1-methylazetidin-1-ium-3-yl)carbamoyl]phenyl]-3-[rac-(7S)-7-tert-butyl-5,6,7,8-tetrahydrothiazolo[5,4-b]quinoline-2-carbonyl]amino]propyl]-4-piperidyl]acetate; 2,2,2-trifluoroacetate] | 6.20
16 | CC(C)(C)[C@H]1CCc2nc3sc(C(=O)N[C@H](CCN4CCCC4)c4ccccc4)cc3cc2C1 [Example 253, (6S)-6-tert-butyl-N-[(1R)-1-phenyl-3-pyrrolidin-1-ylpropyl]-5,6,7,8-tetrahydrothieno[2,3-b]quinoline-2-carboxamide] | 5.49
17 | CC(C)(C)[C@H]1CCc2nc3sc(C(=O)N[C@H](CCN4CC(c5ccccn5)C4)c4cccc(NS(C)(=O)=O)c4)cc3cc2C1 (racemic) [Example 22, ammonium; methylsulfonyl-[3-[rac-(1R)-3-[3-(2-pyridyl)azetidin-1-y1]-1-[[rac-(6S)-6-tert-butyl-5,6,7,8-tetrahydrothieno[2,3-b]quinoline-2-carbonyl]amino]propyl]phenyl] azanide] | 5.75
18 | O=C(N[C@H](CCN1CCC(O)CC1)c1ccc(-c2cnc(O)c(F)c2)cc1)c1nc2cc3c(nc2s1)CC[C@H](C1(C(F)(F)F)CC1)C3 [Example 235, (S)-N-((R)-1-(4-(5-fluoro-6-oxo-1,6-dihydropyridin-3-yl)phenyl)-3-(4-hydroxypiperidin-1-yl)propyl)-7-(1-(trifluoromethyl)cyclopropyl)-5,6,7,8-tetrahydrothiazolo[5,4-b]quinoline-2-carboxamide] | 6.25
19 | CC(C)(C)[C@H]1CCc2nc3sc(C(=O)NC(CCN4CCCC4)c4ccncc4)nc3cc2C1 (stereo partly drawn) [Example 272, (7S)-7-(tert-butyl)-N-(1-(pyridin-4-yl)-3-(pyrrolidin-1-yl)propyl)-5,6,7,8-tetrahydrothiazolo[5,4-b]quinoline-2-carboxamide] | 6.03
